In US11964973B2 (priority 2019, dated 2024):

test system: human venous whole blood, CD8 positive population (pERK); assay: DGK human whole blood pERK assay; assay type: cell-based; settings: Homo sapiens, CD8 positive, human whole blood pERK; read-out: DGK HWB
Method: Assay 11: DGK Human Whole Blood pERK Assay
Human whole blood ERK phosphorylation assay was performed with human venous whole blood obtained from healthy donors (drawn with Heparin as anti-coagulant). […] Heparinized human whole blood was added to the compound plate at 9 μL per well and incubated for one hour at 37° C. in a humidified 95%, air/5% CO2 incubator. After one hour of compound incubation, 1 μL of human anti-CD3 antibody (in-house) in the presence of cross-linking antibody goat anti-mouse IgG (4 μg/mL) was added to the well at 1 μg/mL final concentration for stimulation of pathway and additionally incubated for 15 minutes at 37° C. […] Samples analyzed using the Intellicyt® iQue Screener PLUS. The pERK activation was quantitated by the percentage of pERK positive population within CD8 positive population.

Row | SMILES | EC50
1 | C[C@H]1CN(c2cc(=O)n(C)c3ccc(C#N)nc23)[C@@H](C)C[C@H]1Oc1cccc(Cl)c1 [Example 313, 8-((2S,4R,5S)-4-(3-chlorophenoxy)-2,5-dimethylpiperidin-1-yl)-5-methyl-6-oxo-5,6-dihydro-1,5-naphthyridine-2-carbonitrile] | 7.1 µM
2 | Cc1ccc(O[C@@H]2C[C@H](C)N(c3cc(=O)n(C)c4ccc(C#N)nc34)C[C@@H]2C)cc1 [Example 312, 8-((2S,4R,5S)-2,5-dimethyl-4-(p-tolyloxy)piperidin-1-yl)-5-methyl-6-oxo-5,6-dihydro-1,5-naphthyridine-2-carbonitrile] | 6 µM
3 | CCO[C@H]1CN(c2cc(=O)n(C)c3ccc(C#N)nc23)CC[C@@H]1Oc1ccc(OC(C)C)cc1 [Example 347, 8-((3S,4S)-3-ethoxy-4-(4-isopropoxyphenoxy)piperidin-1-yl)-5-methyl-6-oxo-5,6-dihydro-1,5-naphthyridine-2-carbonitrile] | 0.35 µM
4 | CCO[C@H]1CN(c2cc(=O)n(C)c3ccc(C#N)nc23)CC[C@@H]1Oc1ccccc1 (relative stereo) [Example 341, trans-8-(3-Ethoxy-4-phenoxypiperidin-1-yl)-5-methyl-6-oxo-5,6-dihydro-1,5-naphthyridine-2-carbonitrile] | 0.59 µM

same assay, conditions: Homo sapiens, CD8 positive, read-out: DGK HWB (human whole blood pERK), human whole blood, CD8 positive population, anti-CD3 stimulation; top concentration 20 μM

Row | SMILES | EC50
5 | Cn1c(=O)cc(N2CC[C@@H](Oc3cccc(C(F)(F)F)c3)[C@H](OCCN3CCOCC3)C2)c2nc(C#N)ccc21 [Example 391, 5-methyl-8-((3R,4R)-3-(2-morpholinoethoxy)-4-(3-(trifluoromethyl)phenoxy)piperidin-1-yl)-6-oxo-5,6-dihydro-1,5-naphthyridine-2-carbonitrile] | 17 µM

same assay, conditions: Homo sapiens, CD8 positive, read-out: DGK HWB, human whole blood pERK

Row | SMILES | EC50
6 | CC(C)Oc1ccc(OC2C[C@H](C)N(c3nc(=O)n(C)c4ccc(C#N)nc34)C[C@@H]2C)nc1 (mixture of isomers) [Example 243, (±)-Cis-(-4-((5-isopropoxypyridin-2-yl)oxy)-2,5-dimethylpiperidin-1-yl)-1-methyl-2-oxo-1,2-dihydropyrido[3,2-d]pyrimidine-6-carbonitrile] | 0.59 µM
7 | CC(C)Oc1ccc(OC2C[C@@H](C)N(c3nc(=O)n(C)c4ccc(C#N)nc34)C[C@@H]2C)nc1 (stereo partly drawn) [Example 248, 4-((2R,5S)-4-((5-isopropoxypyridin-2-yl)oxy)-2,5-dimethylpiperidin-1-yl)-1-methyl-2-oxo-1,2-dihydropyrido[3,2-d]pyrimidine-6-carbonitrile] | 0.74 µM
8 | CC[C@@H]1CN(c2cc(=O)n(C)c3ccc(C#N)nc23)[C@H](C)C[C@@H]1Oc1ccc(OC(C)C)cn1 [Example 298, 8-((2R,4S,5R)-5-ethyl-4-((5-isopropoxypyridin-2-yl)oxy)-2-methylpiperidin-1-yl)-5-methyl-6-oxo-5,6-dihydro-1,5-naphthyridine-2-carbonitrile] | 0.91 µM
9 | C[C@@H]1CN(c2nc(=O)n(C)c3ccc(C#N)nc23)[C@@H](C)CC1Oc1cccc(C(F)(F)F)c1 (stereo in doubt) [Example 252, 4-((2S,5R)-2,5-dimethyl-4-(3-(trifluoromethyl)phenoxy)piperidin-1-yl)-1-methyl-2-oxo-1,2-dihydropyrido[3,2-d]pyrimidine-6-carbonitrile] | 3.5 µM
10 | CC1CN(c2c(C#N)c(=O)n(C)c3ccc(C#N)nc23)CCC1N(C)C(=O)c1ccc(C(F)(F)F)cc1 (single isomer, unassigned) [Example 292, N-(1-(3,6-dicyano-1-methyl-2-oxo-1,2-dihydro-1,5-naphthyridin-4-yl)-3-methylpiperidin-4-yl)-N-methyl-4-(trifluoromethyl)benzamide] | 20 µM

same assay, conditions: human whole blood pERK; read-out: DGK HWB

Row | SMILES | EC50
11 | CCO[C@H]1CN(c2cc(=O)n(C)c3ccc(C#N)nc23)CC[C@@H]1Oc1cc(C(F)(F)F)ccn1 [Example 366, 8-((3S,4S)-3-ethoxy-4-((4-(trifluoromethyl)pyridin-2-yl)oxy)piperidin-1-yl)-5-methyl-6-oxo-5,6-dihydro-1,5-naphthyridine-2-carbonitrile] | 20 µM
12 | CCO[C@H]1CN(c2cc(=O)n(C)c3ccc(C#N)nc23)CC[C@@H]1Oc1nc2ccccc2s1 [Example 373] | 1.6 µM
13 | CCO[C@H]1CN(c2cc(=O)n(C)c3ccc(C#N)nc23)CC[C@H]1Oc1ccc(OC(C)C)cn1 (relative stereo) [Example 371, cis-8-(3-Ethoxy-4-((5-isopropoxypyridin-2-yl)oxy)piperidin-1-yl)-5-methyl-6-oxo-5,6-dihydro-1,5-naphthyridine-2-carbonitrile] | 3.6 µM
14 | CCO[C@H]1CN(c2cc(=O)n(C)c3ccc(C#N)nc23)CC[C@@H]1Oc1cccc(OC(F)(F)F)c1 [Example 351, 8-((3S,4S)-3-ethoxy-4-(3-(trifluoromethoxy)phenoxy)piperidin-1-yl)-5-methyl-6-oxo-5,6-dihydro-1,5-naphthyridine-2-carbonitrile] | 0.21 µM
15 | CCO[C@H]1CN(c2cc(=O)n(C)c3ccc(C#N)nc23)CC[C@@H]1Oc1cccc(C(F)(F)F)n1 (relative stereo) [Example 364, trans-8-(3-Ethoxy-4-((6-(trifluoromethyl)pyridin-2-yl)oxy)piperidin-1-yl)-5-methyl-6-oxo-5,6-dihydro-1,5-naphthyridine-2-carbonitrile] | 20 µM
16 | CCO[C@H]1CN(c2cc(=O)n(C)c3ccc(C#N)nc23)CC[C@@H]1Oc1ccc2oc(C)nc2c1 [Example 356, 8-((3S,4S)-3-ethoxy-4-((2-methylbenzo[d]oxazol-5-yl)oxy)piperidin-1-yl)-5-methyl-6-oxo-5,6-dihydro-1,5-naphthyridine-2-carbonitrile] | 3.9 µM
17 | CCO[C@H]1CN(c2cc(=O)n(C)c3ccc(C#N)nc23)CC[C@@H]1Oc1ccccc1 (relative stereo) [Example 342, trans-8-(3-Ethoxy-4-phenoxypiperidin-1-yl)-5-methyl-6-oxo-5,6-dihydro-1,5-naphthyridine-2-carbonitrile] | 0.84 µM

same assay, conditions: read-out: DGK HWB; human whole blood pERK

Row | SMILES | EC50
18 | CC(C)Oc1ccc(OC2C[C@H](C)N(c3nc(=O)n(C)c4ccc(C#N)nc34)C[C@H]2C)nc1 (stereo partly drawn) [Example 250, 4-((2S,5R)-4-((5-isopropoxypyridin-2-yl)oxy)-2,5-dimethylpiperidin-1-yl)-1-methyl-2-oxo-1,2-dihydropyrido[3,2-d]pyrimidine-6-carbonitrile] | 2.1 µM
19 | CC(C)Oc1ccc(OC2C[C@H](C)N(c3nc(=O)n(C)c4ccc(C#N)nc34)C[C@H]2C)nc1 (stereo partly drawn) [Example 247, 4-((2S,5R)-4-((5-isopropoxypyridin-2-yl)oxy)-2,5-dimethylpiperidin-1-yl)-1-methyl-2-oxo-1,2-dihydropyrido[3,2-d]pyrimidine-6-carbonitrile] | 0.74 µM
20 | C[C@H]1CN(c2cc(=O)n(C)c3ccc(C#N)nc23)[C@@H](C)CC1N(C)Cc1ccc(F)cc1 (single isomer, unassigned) [Example 333] | 5.5 µM
21 | C[C@@H]1CN(c2nc(=O)n(C)c3ccc(C#N)nc23)[C@H](C)CC1Oc1cccc(C(F)(F)F)c1 (stereo partly drawn) [Example 256, 4-((2R,5R)-2,5-dimethyl-4-(3-(trifluoromethyl)phenoxy)piperidin-1-yl)-1-methyl-2-oxo-1,2-dihydropyrido[3,2-d]pyrimidine-6-carbonitrile] | 4.7 µM
22 | C[C@H]1CN(c2cc(=O)n(C)c3ccc(C#N)nc23)[C@@H](C)CC1N(C)Cc1ccc(F)cc1 (single isomer, unassigned) [Example 334] | 20 µM
